Measured values: US11111251B2, “Positive allosteric modulators of the muscarinic acetylcholine receptor M1” (Vanderbilt University, priority 2016, dated 2021)
Read-outs that look alike come from different tables or passages of the source.

Biological target: T1, human mAChR M1 (Homo sapiens, UniProt P11229)
T1 sequence (P11229 1-460): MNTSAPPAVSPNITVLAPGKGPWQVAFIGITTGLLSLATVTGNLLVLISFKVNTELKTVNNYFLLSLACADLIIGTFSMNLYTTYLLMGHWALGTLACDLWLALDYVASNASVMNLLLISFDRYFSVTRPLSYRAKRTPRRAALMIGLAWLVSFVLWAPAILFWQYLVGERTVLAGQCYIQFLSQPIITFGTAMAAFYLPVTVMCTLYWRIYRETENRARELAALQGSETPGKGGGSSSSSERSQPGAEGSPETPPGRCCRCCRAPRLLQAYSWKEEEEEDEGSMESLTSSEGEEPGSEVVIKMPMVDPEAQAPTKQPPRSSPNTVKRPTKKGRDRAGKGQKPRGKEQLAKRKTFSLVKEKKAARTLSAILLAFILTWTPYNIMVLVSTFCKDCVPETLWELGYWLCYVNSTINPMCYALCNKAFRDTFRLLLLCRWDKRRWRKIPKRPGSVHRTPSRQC
Test: mAChR M1 cell-based functional assay: calcium mobilization, positive allosteric modulator mode (increase in EC20 acetylcholine response)
Details: for EC50: read-out: Human M1 EC50; for Emax: read-out: Human M1 Emax (%)
Method in brief: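 Calcium-flux assay in CHO-K1 cells stably expressing human M1, loaded with Fluo-4 AM (50 min, 37 °C) and read at 1 Hz. Compound (11-point, 1:3 series) was added at 4 s, EC20 acetylcholine at 144 s and EC80 at 230 s. PAM activity is the concentration-dependent rise in the EC20 response, fitted with a four-parameter logistic.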

Row | Compound | EC50 (Table 2, human M1) | Emax (Table 2, human M1) | Emax | Human M1 Emax (%) (Table 2, human M1)
1 | Cn1ccc(-c2ccc(Cc3cc(C(=O)NC4CCOCC4)nc4ccn(C)c34)cn2)n1 [Compound 503, 1-methyl-7-[[6-(1-methylpyrazol-3-yl)-3-pyridyl]methyl]-N-tetrahydropyran-4-yl-pyrrolop,2-blpyridine-5-carboxamide;] | 1.56 µM | 66.6% |  | 
2 | Cc1nc(-c2ccc(Cc3cc(C(=O)NC4CCCCNC4=O)nc4ccsc34)cc2)cs1 (centres unmarked) [Compound 199, 7-[[4-(2-methylthiazol-4-yl)phenyl]methyl]-N-(2-oxoazepan-3-yl)thieno[3,2-b]pyridine-5-carboxamide] | 1.42 µM | 88.1% |  | 
3 | Cn1ccc2nc(C(=O)NC3CCOC(C)(C)C3)cc(Cc3ccc(-c4nccs4)cc3)c21 (centres unmarked) [Compound 484, N-(2,2-dimethyltetrahydropyran-4-yl)-1-methyl-7-[(4-thiazol-2-ylphenyl)methyl]pyrrolo[3,2-b]pyridine-5-carboxamide] | 0.704 µM |  | 47.2% | 
4 | Cc1ccc(Cc2cc(C(=O)NC3CCCNC3=O)nc3ccsc23)cn1 (centres unmarked) [Compound 66, 7-[(6-methyl-3-pyridyl)methyl]-N-(2-oxo-3-piperidyl)thieno[3,2-b]pyridine-5-carboxamide] | 7.41 µM | 93% |  | 
5 | O=C(NC1CC(F)C1)c1cc(Cc2ccc(-c3cncs3)cc2)c2sccc2n1 (centres unmarked) [Compound 401, N-(3-fluorocyclobutyl)-7-[(4-thiazol-5-ylphenyl)methyl]thieno[3,2-b]pyridine-5-carboxamide] | 4.57 µM | 40.5% |  | 
6 | Cn1ccc(-c2ccc(Cc3cc(C(=O)NC4CC(F)C4)nc4ccn(C)c34)cn2)n1 (centres unmarked) [Compound 510, N-(3-fluorocyclobutyl)-1-methyl-7-[[6-(1-methylpyrazol-3-yl)-3-pyridyl]methyl]pyrrolo[3,2-b]pyridine-5-carboxamide;] | 4.28 µM | 76.8% |  | 
7 | Cn1ncc2nc(C(=O)N[C@H]3CCC[C@@H]3O)cc(Cc3ccc(-n4cccn4)cc3)c21 [Compound 497, N-[(1S,2S)-2-hydroxycyelopentyl]-1-methyl-7-[(4-pyrazol-1-ylphenyl)methyl]pyrazolo-[4,3-b]pyridine-5-carboxamide] | 1.18 µM | 68.1% |  | 
8 | Cc1cc2nc(C(=O)NC3CCOCC3)cc(Cc3ccc(-n4cccn4)cc3)c2s1 [Compound 239, 2-methyl-7-[(4-pyrazol-1-ylphenyl)methyl]-N-tetrahydropyran-4-yl-thieno[3,2-b]pyridine-5-carboxamide] | 3.08 µM | 81.5% |  | 
9 | 7-[[6-(1-methylpyrazol-4-yl)-3-pyridyl]methyl]-N-tetrahydropyran-4-yl-thieno[3,2-b]pyridine-5-carboxamide [Compound 301] | 0.0423 µM |  |  | 71.87%
10 | Cc1ncc(Cc2cc(C(=O)N[C@@H]3CCCCC[C@H]3O)nc3ccsc23)cn1 [Compound 131, N-[(1R,2R)-2-hydroxycycloheptyl]-7-[(2-methylpyrimidin-5-yl)methyl]thieno[3,2-b]pyridine-5-carboxamide] | 4.65 µM | 83.4% |  | 
11 | O=C(NCC1CCOC1)c1cc(Cc2ccc(-c3cncs3)cc2)c2sccc2n1 (centres unmarked) [Compound 396, N-(tetrahydrofuran-3-ylmethyl)-7-[(4-thiazol-5-ylphenyl)methyl]thieno[3,2-b]pyridine-5-carboxamide] | 1.06 µM | 63% |  | 
12 | Cc1csc2c(Cc3ccc(-n4cccn4)cc3)cc(C(=O)NCC3CCO3)nc12 (centres unmarked) [Compound 324, 3-methyl-N-(oxetan-2-ylmethyl)-7-[(4-pyrazol-1-ylphenyl)methyl]thieno[3,2-b]pyridine-5-carboxamide] | 1.05 µM | 78.9% |  | 

The next lines start with results.

Row | EC50 (Table 2, human M1) | Emax (Table 2, human M1) | Compound | Emax | Human M1 Emax (%) (Table 2, human M1)
13 | 0.134 µM | 75.7% | O=C(NC1CCOCC1)c1cc(Cc2ccc(-c3cscn3)cc2)c2sccc2n1 [Compound 232, N-tetrahydropyran-4-yl-7-[(4-thiazol-4-ylphenyl)methyl]thieno[3,2-b]pyridine-5-carboxamide] |  | 
14 | 0.114 µM | 86.9% | Cn1cc(-c2ccc(Cc3cc(C(=O)N[C@@H]4CCCOC4)nc4ccsc34)cn2)cn1 [Compound 361, 7-[[6-(1-methylpyrazol-4-yl)-3-pyridyl]methyl]-N-[(3R)-tetrahydropyran-3-yl]thieno[3,2-b]pyridine-5-carboxamide] |  | 
15 | 0.897 µM | 83.5% | COC1CC(NC(=O)c2cc(Cc3ccc(-c4cscn4)cc3)c3sccc3n2)C1 (centres unmarked) [Compound 204, N-(3-methoxycyclobutyl)-7-[(4-thiazol-4-ylphenyl)methyl]thieno[3,2-b]pyridine-5-carboxamide] |  | 
16 | 0.485 µM | 73.4% | O=C(N[C@H]1CCOC1)c1cc(Cc2ccc(-n3cccn3)cc2)c2sccc2n1 [Compound 278, 7-[(4-pyrazol-1-ylphenyl)methyl]-N-[(3S)-tetrahydrofuran-3-yl]thieno[3,2-b]pyridine-5-carboxamide] |  | 
17 | 0.158 µM | 83.6% | CC1CC(NC(=O)c2cc(Cc3ccc(-c4cnn(C)c4)nc3)c3sccc3n2)CC(C)O1 (centres unmarked) [Compound 335, N-(2,6-dimethyltetrahydropyran-4-yl)-7-[[6-(1-methylpyrazol-4-yl)-3-pyridyl]methyl]thieno[3,2-b]pyridine-5-carboxamide] |  | 
18 | 0.583 µM | 69.5% | O=C(NCC1CCOCC1)c1cc(Cc2ccc(-c3cncs3)cc2)c2sccc2n1 [Compound 387, N-(tetrahydropyran-4-ylmethyl)-7-[(4-thiazol-5-ylphenyl)methyl]thieno[3,2-b]pyridine-5-carboxamide] |  | 
19 | 0.0228 µM | 62.8% | Cc1nc(-c2ccc(Cc3cc(C(=O)N[C@H]4CCOC[C@@H]4O)nc4c(C)csc34)cc2)co1 [Compound 330, N-[(3R,4S)-3-hydroxytetrahydropyran-4-yl]-3-methyl-7-[[4-(2-methyloxazol-4-yl)phenyl]methyl]thieno[3,2-b]pyridine-5-carboxamide] |  | 
20 | 0.0157 µM | 71.1% | O=C(N[C@H]1CCOC[C@@H]1O)c1cc(Cc2ccc(-c3nccs3)cc2)c2sccc2n1 [Compound 294] |  | 
21 | 0.435 µM | 28.8% | Cc1csc2c(Cc3ccc(-n4cccn4)cc3)cc(C(=O)NC3CCCCNC3=O)nc12 (centres unmarked) [Compound 123, 3-methyl-N-(2-oxoazepan-3-yl)-7-[(4-pyrazol-1-ylphenyl)methyl]thieno[3,2-b]pyridine-5-carboxamide] |  | 
22 | 0.336 µM | 90.7% | Cc1nc(-c2ccc(Cc3cc(C(=O)N[C@H]4CC[C@@H]4O)nc4ccsc34)cc2)co1 [Compound 146, N-[(1S,2S)-2-hydroxycyclobutyl]-7-[[4-(2-methyloxazol-4-yl)phenyl]methyl]thieno[3,2-b]pyridine-5-carboxamide] |  | 
23 | 0.62 µM | 75.1% | Cc1csc2c(Cc3ccc(-n4cccn4)cc3)cc(C(=O)NC[C@H]3CCCO3)nc12 [Compound 322, 3-methyl-7-[(4-pyrazol-1-ylphenyl)methyl]-N-[[(2R)-tetrahydrofuran-2-yl]methyl]thieno[3,2-b]pyridine-5-carboxamide] |  | 
24 | 0.819 µM | 25.5% | Cn1ccc2nc(C(=O)NC3CC(F)(F)C3)cc(Cc3ccc(-c4nccs4)cc3)c21 [Compound 487, N-(3,3-difluorocyclobutyl)-1-methyl-7-[(4-thiazol-2-ylphenyl)methyl]pyrrolo[3,2-b]pyridine-5-carboxamide] |  | 
25 | 0.0227 µM | 63.9% | Cc1csc2c(Cc3ccc(-c4ccn(C)n4)cc3)cc(C(=O)N[C@H]3CCOC[C@@H]3O)nc12 [Compound 313] |  | 
